Results published in ChEMBL document CHEMBL1201862, “PubChem BioAssay data set” (2004).
Activity calls are given as the source filed them.

Tests used:
[1] = MITF Orthogonal Assay: SK-MEL-5 CTG Assay Measured in Cell-Based System Using Plate Reader - 2084-02_Inhibitor_Dose_DryPowder_Activity_Set7.; assay type: functional
[2] = MITF: Counter assay: A375 proliferation Measured in Cell-Based System Using Plate Reader - 2084-03_Inhibitor_Dose_DryPowder_Activity_Set8.; assay type: functional; conditions: A-375
[3] = inhibitors of TRPM1-promoter reporter in SK-MEL-5 – cell-based, luciferase, dry powder, set 8, MITF inhibitor project, dose response (AID 624430); assay type: functional
BJ [4] = test: BJ-TERT fibroblast viability loss – cell-based, RAS-independent, luminescence, dose response (AID 1933); assay type: functional; conditions: Homo sapiens
cells [5] = assay type: functional, cell-based
BJ [6] = test: cells; assay type: functional, cell-based; conditions: Homo sapiens
[7] = target: Luciferin 4-monooxygenase (Photinus pyralis, UniProt P08659); test: inhibition of purified Photinus pyralis luciferase – biochemical, luminescence, dose response (AID 1891)
[8] = Luminescence Cell-Based Dose Confirmation HTS to Identify Inhibitors of Platelet Dense Granule Release. [Related pubchem assays: 1663 (Primary HTS), 1678 (Summary of Project)]; assay type: functional
[9] = Trypanosoma cruzi growth suppression in host cells – NIH3T3 host cells, beta-gal luminescence, confirmation (AID 2044); assay type: functional, cell-based;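 also: intracellular parasites grown in NIH/3T3 mouse fibroblasts as host cells; luminescent beta-galactosidase reporter signal from transgenic T. cruzi replicating inside host cells; inhibitors lower the luminescence signal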
cells [10] = assay type: functional, cell-based; remark: listed apart in the source
[11] = NIH3T3 cell viability loss – ATP luminescence, mouse fibroblasts, counter-screen, dose response (AID 2010); assay type: functional, cell-based;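 also: cells exposed to compound for about 90 hours before reading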
BJ [12] = test: BJ-TERT-LT-ST fibroblast viability loss – cell-based, RAS-independent, luminescence, dose response (AID 1935); assay type: functional; conditions: Homo sapiens;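 also: BJ fibroblasts immortalized with TERT plus LT and ST oncogenes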
[13] = DRD fibroblast viability loss – cell-based, non-viral oncogenic, luminescence, dose response (AID 1934); assay type: functional; conditions: Homo sapiens
Caspase-3 = target: T1, Caspase-3 (Homo sapiens, UniProt P42574); assay type: functional;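 also: Dose-response selectivity test against caspase-3 for candidate inhibitors of sentrin-specific proteases (SENPs)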
T1 sequence (P42574 whole entry): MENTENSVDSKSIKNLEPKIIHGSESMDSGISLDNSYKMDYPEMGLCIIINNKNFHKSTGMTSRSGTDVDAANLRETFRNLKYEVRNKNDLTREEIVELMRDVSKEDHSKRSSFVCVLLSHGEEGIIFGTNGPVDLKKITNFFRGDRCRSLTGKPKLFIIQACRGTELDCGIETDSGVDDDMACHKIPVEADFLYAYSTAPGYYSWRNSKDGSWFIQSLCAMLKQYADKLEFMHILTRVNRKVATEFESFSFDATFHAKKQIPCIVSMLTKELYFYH

[14] = target: T2, Sentrin-specific protease 7 (Homo sapiens, UniProt Q9BQF6); assay type: functional;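 also: Luminescence-based dose-response confirmation of ultra-high-throughput screening hits, measuring inhibition of SENP7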
T2 sequence (Q9BQF6 whole entry): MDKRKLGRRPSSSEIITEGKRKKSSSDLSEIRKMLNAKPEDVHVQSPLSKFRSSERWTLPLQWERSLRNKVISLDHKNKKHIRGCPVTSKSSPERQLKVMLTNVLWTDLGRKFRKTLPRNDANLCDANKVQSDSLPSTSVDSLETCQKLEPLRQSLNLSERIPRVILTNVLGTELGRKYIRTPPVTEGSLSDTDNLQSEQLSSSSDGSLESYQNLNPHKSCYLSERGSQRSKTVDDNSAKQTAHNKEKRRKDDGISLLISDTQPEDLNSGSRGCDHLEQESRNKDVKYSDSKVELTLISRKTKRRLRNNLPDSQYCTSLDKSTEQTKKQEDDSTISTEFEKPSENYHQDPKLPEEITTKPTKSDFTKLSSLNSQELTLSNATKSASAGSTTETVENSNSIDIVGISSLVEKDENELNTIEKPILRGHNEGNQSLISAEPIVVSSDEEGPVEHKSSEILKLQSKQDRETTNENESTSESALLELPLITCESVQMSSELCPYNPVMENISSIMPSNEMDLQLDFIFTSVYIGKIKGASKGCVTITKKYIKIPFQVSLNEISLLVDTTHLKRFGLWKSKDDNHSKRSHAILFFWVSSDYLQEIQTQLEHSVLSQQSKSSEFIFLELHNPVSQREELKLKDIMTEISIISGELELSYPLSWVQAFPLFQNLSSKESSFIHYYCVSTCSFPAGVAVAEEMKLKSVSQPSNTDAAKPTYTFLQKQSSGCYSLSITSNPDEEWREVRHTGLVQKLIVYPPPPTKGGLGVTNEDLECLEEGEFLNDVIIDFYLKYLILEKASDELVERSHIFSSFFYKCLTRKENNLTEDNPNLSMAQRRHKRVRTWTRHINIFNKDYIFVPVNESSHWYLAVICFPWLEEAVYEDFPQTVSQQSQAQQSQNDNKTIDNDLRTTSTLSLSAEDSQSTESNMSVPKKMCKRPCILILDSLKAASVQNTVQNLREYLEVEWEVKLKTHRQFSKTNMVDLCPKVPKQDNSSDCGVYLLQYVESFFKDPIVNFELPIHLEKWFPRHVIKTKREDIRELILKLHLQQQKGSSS

[15] = target: T3, Sentrin-specific protease 6 (Homo sapiens, UniProt Q9GZR1); assay type: functional;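 also: Luminescence-based dose-response confirmatory assay of SENP6 inhibition, following up an ultra-high-throughput screen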
T3 sequence (Q9GZR1 whole entry): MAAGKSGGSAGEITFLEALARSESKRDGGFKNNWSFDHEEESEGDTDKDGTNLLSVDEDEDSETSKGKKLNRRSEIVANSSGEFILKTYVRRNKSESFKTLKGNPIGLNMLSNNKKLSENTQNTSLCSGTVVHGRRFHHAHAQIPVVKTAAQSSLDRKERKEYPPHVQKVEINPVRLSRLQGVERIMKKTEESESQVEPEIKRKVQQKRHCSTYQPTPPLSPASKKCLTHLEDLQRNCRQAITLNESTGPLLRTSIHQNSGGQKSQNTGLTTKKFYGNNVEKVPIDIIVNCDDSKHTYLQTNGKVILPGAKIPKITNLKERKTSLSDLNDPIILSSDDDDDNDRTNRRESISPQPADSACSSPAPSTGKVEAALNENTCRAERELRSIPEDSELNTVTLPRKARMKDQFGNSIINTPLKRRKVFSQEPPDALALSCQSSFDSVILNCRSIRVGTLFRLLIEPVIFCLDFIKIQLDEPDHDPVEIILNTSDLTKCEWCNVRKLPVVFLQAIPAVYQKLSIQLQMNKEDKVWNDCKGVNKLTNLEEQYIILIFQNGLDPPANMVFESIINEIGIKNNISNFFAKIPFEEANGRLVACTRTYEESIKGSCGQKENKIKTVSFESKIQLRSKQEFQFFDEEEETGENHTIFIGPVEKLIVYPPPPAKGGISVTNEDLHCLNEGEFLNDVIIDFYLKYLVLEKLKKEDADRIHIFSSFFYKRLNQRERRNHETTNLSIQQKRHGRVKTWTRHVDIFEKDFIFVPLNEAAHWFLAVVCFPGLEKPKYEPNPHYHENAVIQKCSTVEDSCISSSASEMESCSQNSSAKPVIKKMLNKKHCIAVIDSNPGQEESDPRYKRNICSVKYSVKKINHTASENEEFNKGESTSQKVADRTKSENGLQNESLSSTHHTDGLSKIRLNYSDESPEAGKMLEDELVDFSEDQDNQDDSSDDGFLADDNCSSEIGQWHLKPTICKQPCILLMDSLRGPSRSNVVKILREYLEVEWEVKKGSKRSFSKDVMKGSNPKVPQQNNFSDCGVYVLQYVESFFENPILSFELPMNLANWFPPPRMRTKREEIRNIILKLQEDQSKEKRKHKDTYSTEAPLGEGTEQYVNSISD

[16] = target: T4, Sentrin-specific protease 8 (Homo sapiens, UniProt Q96LD8); assay type: functional;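 also: luminescence read-out of SENP8 inhibition, dose-response confirmation following an ultra-high-throughput screen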
T4 sequence (Q96LD8 whole entry): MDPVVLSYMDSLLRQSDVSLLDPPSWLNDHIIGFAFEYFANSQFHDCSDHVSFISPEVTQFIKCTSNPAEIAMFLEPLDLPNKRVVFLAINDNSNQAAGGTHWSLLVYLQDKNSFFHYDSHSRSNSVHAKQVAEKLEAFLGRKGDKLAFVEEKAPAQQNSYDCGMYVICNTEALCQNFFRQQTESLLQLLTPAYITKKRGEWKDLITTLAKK

INS1 = test: INS-1E survival protection against cytokine death – cell-based, luminescence, retest, dose response (AID 449756); assay type: functional; conditions: Rattus norvegicus;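 also: cell death triggered by IL-1 beta plus TNF-alpha plus IFN-gamma mixture; protective hits raise ATP signal compared with cytokine alone wells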
[17] = viability loss in HepG2 hepatoma cells – cell-based, ATP luminescence, cherry-pick, activator set 2, cytotoxicity control, dose response (AID 1053143); assay type: functional
Caspase-6 = Caspase-6 (Homo sapiens, UniProt P55212); test: inhibition of CASP6 peptide cleavage – biochemical, VEID-R110 fluorescence, cherry-pick, dose response (AID 720632)
Caspase-7 = Caspase-7 (Homo sapiens, UniProt P55210); test: caspase-7 enzyme inhibition, selectivity check – biochemical, DEVD-R110 fluorescence, cherry-pick, selectivity assay for caspase-6 inhibitor project, dose response (AID 743295); assay type: functional
Caspase-8 = Caspase-8 (Homo sapiens, UniProt Q14790); test: inhibitors of purified CASP8 protease – biochemical, Z-IETD-R110 fluorescence, cherry-picked samples, selectivity assay for caspase-6 inhibitor project, dose response (AID 743294)
Protein Tat = Protein Tat (Human immunodeficiency virus type 1 group M subtype B (isolate HXB2)(HIV-1), UniProt P04608); assay type: functional;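 also: tat binding to TAR RNA read out by fluorescence polarization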
[18] = viability loss in THP-1 monocytes – THP-1 cells, cytotoxicity control for Vif-APOBEC3G degradation inhibitor project, dose response (AID 1117359); assay type: functional; conditions: THP-1
[19] = potency of ADAM10 substrate cleavage blockers – biochemical, QFRET, dose response (AID 743254);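 also: ADAM10 enzyme with the DM2 quenched FRET peptide as substrate; EDANS fluorescence gain as the protease cuts the substrate; inhibitor potency against ADAM10 proteolytic activity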
[20] = target: Disintegrin and metalloproteinase domain-containing protein 17 (Homo sapiens, UniProt P78536); test: inhibition of ADAM17 substrate cleavage – biochemical, quenched FRET substrate, counter-screen for ADAM10 exosite inhibitor project, dose response (AID 743253)
[21] = test system: Streptococcus sp. 'group A'; test: Streptococcus pyogenes SK(-)GAS viability under kanamycin – luminescence, BacTiterGlo, confirmation, counter-screen for streptokinase expression inhibitor project, dose response (AID 1900); assay type: functional, organism-based
[22] = target: T5, Heat shock factor protein 1 (Mus musculus, UniProt P38532); test: decrease of HSF1-responsive luciferase luminescence – cell-based, NIH3T3, dose retest, confirmation (AID 2382); assay type: functional;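 also: NIH3T3 fibroblasts with HSF1-driven luciferase reporter stressed by proteasome inhibitor MG132; luminescence from HSF1-driven luciferase expression after 8 hours of MG132 stress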
T5 sequence (P38532 whole entry): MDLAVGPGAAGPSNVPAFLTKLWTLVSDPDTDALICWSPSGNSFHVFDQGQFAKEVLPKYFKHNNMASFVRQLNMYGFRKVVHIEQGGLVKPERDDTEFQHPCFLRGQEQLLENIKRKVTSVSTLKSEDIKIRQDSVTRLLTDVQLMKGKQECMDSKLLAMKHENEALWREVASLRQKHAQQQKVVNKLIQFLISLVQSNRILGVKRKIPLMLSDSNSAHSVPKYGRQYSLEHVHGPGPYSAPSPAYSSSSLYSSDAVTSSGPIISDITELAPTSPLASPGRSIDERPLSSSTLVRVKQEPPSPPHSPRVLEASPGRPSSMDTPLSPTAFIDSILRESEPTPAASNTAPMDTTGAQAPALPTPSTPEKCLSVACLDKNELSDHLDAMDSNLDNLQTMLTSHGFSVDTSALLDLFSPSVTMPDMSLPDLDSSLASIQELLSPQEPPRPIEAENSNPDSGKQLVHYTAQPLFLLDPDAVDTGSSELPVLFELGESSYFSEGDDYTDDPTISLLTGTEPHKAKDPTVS

Streptococcus = test: GAS UMAA2166 growth inhibition – luminescence, BacTiterGlo, counter-screen for streptokinase expression inhibitor project, dose response (AID 1915); assay type: functional, organism-based;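 also: potency for reduction of bacterial viability or growth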
[23] = Luminescence Cell-Based Dose Retest to Confirm Inhibitors of Cancer Stem Cells. [Related pubchem assays (depositor defined):AID2717, AID2721]; assay type: functional, Homo sapiens; conditions: Homo sapiens
[24] = reduction of Shn3 3'UTR-driven luciferase in osteoblasts – cell-based, Clone20 osteoblasts, firefly luciferase, cherry-picked, dose response (AID 624132); assay type: functional;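 also: firefly luciferase luminescence from reporter carrying the Shn3 3'UTR in osteoblasts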
[25] = Shn3 3'UTR reporter signal decrease – cell-based, Clone20 osteoblasts, firefly luciferase, cherry-pick, set 2, Schnurri-3 inhibitor project, dose response (AID 720490); assay type: functional;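 also: actives lower the luminescence signal as inhibitors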
[26] = EF1alpha-driven Renilla reporter with control 3'UTR suppression – Clone20-Shn3RL cells, dual-Glo, cherry-pick, set 2, counter-screen for Shn3 3'UTR targeting project, dose response (AID 720724); assay type: functional, cell-based; conditions: Dual-Go Shn3RL

Caspase-6, sequence (P55212 24-179 limits assumed): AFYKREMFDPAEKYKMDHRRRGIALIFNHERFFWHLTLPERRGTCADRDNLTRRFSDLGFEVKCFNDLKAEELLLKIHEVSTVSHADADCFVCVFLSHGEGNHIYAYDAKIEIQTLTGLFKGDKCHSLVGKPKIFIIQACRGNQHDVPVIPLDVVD
Caspase-6, sequence (P55212 194-293 limits assumed): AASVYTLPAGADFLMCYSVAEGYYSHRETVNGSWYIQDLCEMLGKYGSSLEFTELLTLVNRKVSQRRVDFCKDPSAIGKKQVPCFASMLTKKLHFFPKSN
Protein Tat, sequence (P04608 whole entry): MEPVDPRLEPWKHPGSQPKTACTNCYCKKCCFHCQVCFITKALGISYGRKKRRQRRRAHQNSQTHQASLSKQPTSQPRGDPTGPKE
Luciferin 4-monooxygenase, sequence (P08659 whole entry): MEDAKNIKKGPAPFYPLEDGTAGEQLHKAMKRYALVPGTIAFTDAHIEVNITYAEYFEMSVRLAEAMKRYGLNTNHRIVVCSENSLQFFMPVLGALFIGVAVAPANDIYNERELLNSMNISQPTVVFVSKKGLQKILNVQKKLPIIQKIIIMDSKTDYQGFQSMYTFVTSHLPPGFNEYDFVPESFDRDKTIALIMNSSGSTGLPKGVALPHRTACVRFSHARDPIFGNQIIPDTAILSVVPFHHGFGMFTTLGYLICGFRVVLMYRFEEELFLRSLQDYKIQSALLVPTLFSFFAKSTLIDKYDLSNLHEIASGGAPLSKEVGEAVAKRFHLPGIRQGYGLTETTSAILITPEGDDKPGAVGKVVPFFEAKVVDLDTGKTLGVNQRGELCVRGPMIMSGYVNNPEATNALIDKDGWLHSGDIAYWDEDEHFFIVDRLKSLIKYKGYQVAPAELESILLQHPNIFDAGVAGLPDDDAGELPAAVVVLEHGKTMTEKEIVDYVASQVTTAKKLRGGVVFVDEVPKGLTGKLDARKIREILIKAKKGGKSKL
Disintegrin and metalloproteinase domain-containing protein 17, sequence (P78536 whole entry, the tested form may be a part): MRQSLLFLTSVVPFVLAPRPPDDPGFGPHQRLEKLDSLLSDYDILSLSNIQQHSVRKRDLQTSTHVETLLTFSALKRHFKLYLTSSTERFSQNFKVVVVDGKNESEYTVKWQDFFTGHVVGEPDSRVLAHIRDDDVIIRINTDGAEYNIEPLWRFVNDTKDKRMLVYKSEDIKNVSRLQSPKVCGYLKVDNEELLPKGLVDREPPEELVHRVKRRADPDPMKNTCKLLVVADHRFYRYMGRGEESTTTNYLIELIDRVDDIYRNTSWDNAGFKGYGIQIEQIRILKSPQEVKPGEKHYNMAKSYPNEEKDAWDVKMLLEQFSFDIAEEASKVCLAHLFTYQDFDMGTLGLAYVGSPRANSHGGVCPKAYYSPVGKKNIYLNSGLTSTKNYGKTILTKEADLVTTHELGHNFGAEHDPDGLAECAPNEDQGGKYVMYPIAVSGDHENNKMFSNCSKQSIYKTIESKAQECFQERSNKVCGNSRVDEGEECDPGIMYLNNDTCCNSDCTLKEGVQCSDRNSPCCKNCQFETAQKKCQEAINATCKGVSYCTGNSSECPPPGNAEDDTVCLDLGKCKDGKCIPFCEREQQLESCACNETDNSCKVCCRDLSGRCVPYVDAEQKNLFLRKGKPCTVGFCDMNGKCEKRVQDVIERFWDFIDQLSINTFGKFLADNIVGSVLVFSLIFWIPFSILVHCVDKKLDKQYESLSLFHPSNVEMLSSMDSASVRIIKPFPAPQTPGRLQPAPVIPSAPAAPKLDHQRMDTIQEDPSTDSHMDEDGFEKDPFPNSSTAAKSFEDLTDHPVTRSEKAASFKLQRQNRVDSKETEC
Caspase-8, sequence (Q14790 217-374 limits assumed): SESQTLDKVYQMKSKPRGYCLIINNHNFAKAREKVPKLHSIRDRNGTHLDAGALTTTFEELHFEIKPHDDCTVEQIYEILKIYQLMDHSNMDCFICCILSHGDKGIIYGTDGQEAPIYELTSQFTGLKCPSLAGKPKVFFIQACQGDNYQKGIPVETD
Caspase-8, sequence (Q14790 385-479 limits assumed): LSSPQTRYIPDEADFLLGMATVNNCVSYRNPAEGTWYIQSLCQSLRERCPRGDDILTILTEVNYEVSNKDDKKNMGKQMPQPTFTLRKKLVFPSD
Caspase-7, sequence (P55210 24-198 limits assumed): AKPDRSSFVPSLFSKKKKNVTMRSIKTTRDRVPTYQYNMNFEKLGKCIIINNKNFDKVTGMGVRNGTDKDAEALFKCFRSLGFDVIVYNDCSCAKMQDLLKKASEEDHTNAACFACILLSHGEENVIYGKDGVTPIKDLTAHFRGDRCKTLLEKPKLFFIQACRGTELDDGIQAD
Caspase-7, sequence (P55210 207-303 limits assumed): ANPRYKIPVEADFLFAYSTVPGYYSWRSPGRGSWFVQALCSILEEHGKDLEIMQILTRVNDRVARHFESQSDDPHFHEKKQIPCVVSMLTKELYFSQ

O=C1C(Nc2cccc(Cl)c2)=C(N2CCCCC2)C(=O)c2ccccc21
active: AC50 [1] 15.7 µM | AC50 [2] 50.1 µM | AC50 [3] 3.46 µM

CCN(CC)c1ccc(/C=N/NC(=O)c2ccoc2C)c(O)c1
active: EC50 (BJ [4]) 3.02 µM | EC50 (cells [5]) 51.7 µM | EC50 (BJ [6]) 6.42 µM | EC50 [7] 0.785 µM | EC50 [8] 2.06 µM | EC50 [9] 0.83 µM | EC50 (cells [10]) 7.38 µM | EC50 [11] 3.59 µM | EC50 (BJ [12]) 15.6 µM | EC50 [13] 6.96 µM | IC50 (Caspase-3) 0.942 µM | IC50 [14] 0.757 µM | IC50 [15] 0.849 µM | IC50 [16] 1.33 µM | AC50 (INS1) 0.622 µM | AC50 [17] 9.01 µM

O=C(c1cccc(-n2cccc2)c1)N1CCN(S(=O)(=O)c2ccccc2)CC1
active: AC50 (Caspase-6) 0.433 µM | AC50 (Caspase-8) 28.1 µM | IC50 (Protein Tat) > 100 µM | CC50 [18] > 40 µM
inactive: AC50 (Caspase-7) > 70 µM

COc1ccc(S(=O)(=O)N2CCC(c3cc(-c4cccc5ccccc45)[nH]n3)CC2)cc1
inactive: IC50 [19] > 69.5 µM | IC50 [20] > 69.5 µM
> 350 µM (not active): EC50 (cells [5]) | EC50 (cells [10])

COc1c(CC=C(C)C)cc(C2CC(=O)c3c(O)cc(O)cc3O2)cc1CC=C(C)C (stereo unspecified)
active: EC50 [21] 2.47 µM | EC50 [22] 11.8 µM | EC50 (Streptococcus) 3.2 µM | AC50 [23] 3.04 µM | AC50 (INS1) 4.52 µM | AC50 [24] 5.42 µM | AC50 [25] 2.82 µM | AC50 [26] 24.6 µM
